pIC50: −log10 of the molar value. Read-outs that look alike come from different tables or passages of the source.

For series [1], the system named is C. albicans strain ATCC 96901. Kind of series: Growth inhibition of fluconazole-resistant C. albicans strain ATCC 96901 in YPD medium (turbidity, A600).
Method: (§1) AH109 cells or ATCC 96901 cells were inoculated into 200.0 ml of YPD to obtain an initial OD600 reading of 0.005 on a spectrophotometer. […] The yeast suspensions were placed on a shaking incubator set at 200 rpm and 30° C. for 18-24 hr (S. cerevisiae) or 10-12 hr (C. albicans), and then the extent of fungal growth was assessed by measuring the sample absorbance at 600 nm (A600 nm) on a spectrophotometer. The effect of each concentration of antifungal agent was tested in triplicate.
The subject of series [2] is S. cerevisiae strain AH109. Kind of series: Growth inhibition of S. cerevisiae strain AH109 in YPD medium (turbidity, A600).
Method: as §1
Series [3] concerns C. albicans strain ATCC 96901. Kind of series: Broth microdilution susceptibility testing (MIC), C. albicans strain ATCC 96901. The conditions noted are these: fluconazole-resistant C. albicans strain ATCC 96901, RPMI medium pH 7.0, 48 hr, 30° C.; MIC = lowest concentration with 100% growth inhibition. Background: In broth dilution the organism is exposed to a series of concentrations in liquid medium.
Method: (§2) Broth Microdilution Susceptibility Testing of C. albicans:
(§3) Note that all susceptibility assays were performed in triplicate wells using sterile flat-bottom 24-well microtiter plates.

A further series has as its system C. albicans strain S2. Kind of series: Broth microdilution susceptibility testing (MIC), C. albicans strain S2. The conditions noted are these: fluconazole-resistant C. albicans strain S2, RPMI medium pH 7.0, 48 hr, 30° C.; MIC = lowest concentration with 100% growth inhibition.
Where [4] appears, read: Candida albicans, ATCC96901, read-out: IC50, concentration of drug required to inhibit the growth of yeast cells by 50%.
[5] abbreviates: Saccharomyces cerevisiae, AH109, AH109, read-out: IC50, concentration of drug required to inhibit the growth of yeast cells by 50%.

Method for A-431 human skin cells: Cells were then incubated for 48 hr at 37° C. After incubation, the MTT viability assay was performed. This assay measures the conversion of 3-[4,5-dimethylthiazol-2-yl]-2,5-diphenyl tetrazolium bromide (MTT) into a colored product in living cells.
The MTT assay was used to determine cell viability and the LC50 value for each compound was evaluated.
Method for C. albicans strain S2: as §2, §3

Consider `CC(=O)N1CCN(c2ccc(OCC3COC(Cn4ccnc4)(c4ccc(Cl)cc4Cl)O3)cc2)CC1` (stereo not drawn) [ketoconazole], for which the pIC50 in series [1] (setting [4]) was 6.68; in series [2] (setting [5]), 6.27.
Take `C[C@@H]1[C@H](O)[C@@H](C)/C=C/C=C/C=C/C=C/C=C/C=C/C=C/[C@H](O[C@@H]2O[C@H](C)[C@@H](O)[C@H](N)[C@@H]2O)C[C@@H]2O[C@](O)(C[C@@H](O)C[C@@H](O)[C@H](O)CC[C@@H](O)C[C@@H](O)CC(=O)O[C@H]1C)C[C@H](O)[C@H]2C(=O)O` [amphotericin B]: the pIC50 is 6.64 in series [1] (read-out: IC50, concentration of drug required to inhibit the growth of yeast cells by 50%, fluconazole-resistant C. albicans ATCC 96901, YPD medium, 10-12 hr, 30° C.) and 7.52 in series [2] (read-out: IC50, concentration of drug required to inhibit the growth of yeast cells by 50%, S. cerevisiae AH109, YPD medium, 18-24 hr, 30° C.).
Turning to `O=C1c2ccccc2[Se](=O)N1c1ccccc1` (stereo not drawn) [ebselen se-oxide, 2-phenyl-1,2-benzisoselenazol-3(2H)-one 1-oxide], the “MIC compared with fluconazole” value in series [3] is “lower MIC values, than fluconazole”; with C. albicans strain S2 it was “lower MIC values, than fluconazole”. Moreover, the pIC50 in series [1] (setting [4]) was 5.35; in series [2] (setting [5]) it was 5.68. For the same compound, in the series with A-431 human skin cells, the “Toxicity to A-431 human skin cells (MTT viability, LC50 evaluated)” value was “neither compound was toxic”.
`O=c1c2ccccc2[se]n1-c1ccccc1` [ebselen, 2-phenyl-1,2-benzisoselenazol-3(2H)-one]: the “MIC compared with fluconazole” value in series [3] is “lower MIC values, than fluconazole”; in the series on C. albicans strain S2, “lower MIC values, than fluconazole”. The results for the pIC50 in series [1] (setting [4]) and in series [2] (setting [5]) were 5.23 and 5.34, respectively. Besides, the “Toxicity to A-431 human skin cells (MTT viability, LC50 evaluated)” value with A-431 human skin cells is reported as “neither compound was toxic”.
For `OC(Cn1cncn1)(Cn1cncn1)c1ccc(F)cc1F` [fluconazole], the pIC50 in series [1] (setting [4]) is 3.34; in series [2] (setting [5]), 4.28.
Turning to `CCC(C)n1ncn(-c2ccc(N3CCN(c4ccc(OCC5COC(Cn6cncn6)(c6ccc(Cl)cc6Cl)O5)cc4)CC3)cc2)c1=O` (stereo not drawn) [itraconazole], the pIC50 was 6.32 in series [1] (setting [4]) and 5.95 in series [2] (setting [5]).

The record behind these values is US8426452B2, “Process for the treatment and prevention of diseases caused by fungi” (priority 2008, dated 2013).
